Values quoted from earlier work in US4916151A, “Method of treating parkinson's syndrome” (Merrell Dow Pharmaceuticals Inc., priority 1989, dated 1990).

Columns and labels:
MAO = conditions: literature; selectivity lost as dosage is increased
[1] = literature
depression = conditions: literature reports

| Structure (SMILES) | preferential inhibition of MAO-A or MAO-B (MAO) | potentiation of L-dopa for treatment of Parkinson's disease [1] | clinical antidepressant effect (depression) |
| --- | --- | --- | --- |
| N[C@@H]1C[C@H]1c1ccccc1 (relative stereo) [tranylcypromine] | not preferential in their action upon MAO | – | – |
| C#CCN(C)[C@H](C)Cc1ccccc1 [L-deprenyl] | MAO-B is preferentially inhibited | potentiate L-dopa for the treatment of Parkinson's disease without producing peripheral side effects | clinically effective antidepressant agents |
| C#CCN(C)CCCOc1ccc(Cl)cc1Cl [clorgyline] | – | – | clinically effective antidepressant agents |
| Cc1cc(C(=O)NNCc2ccccc2)no1 [isocarboxazid] | not preferential in their action upon MAO | – | – |
| C#CCN(C)Cc1ccccc1 [pargyline] | MAO-B is preferentially inhibited | – | clinically effective antidepressant agents |
| NNCCc1ccccc1 [phenelzine] | not preferential in their action upon MAO | – | – |
